This is an account of results in patent US20230391741A1, “AGAROFURAN COMPOUND, PREPARATION METHOD THEREFOR, AND APPLICATION THEREOF” (BEIJING CHY PHARMACEUTICAL TECHNOLOGY CO, LTD., priority 2021, published 2023).

Structures are written as SMILES. “Also recorded” adds a separate entry of the source.

The test system of one data set is male ICR mice. Put plainly: Elevated plus maze (EPM) test, intraperitoneal injection. Particulars: for Open-arm residence times and entries compared with BAF: Tables 3 and 4, statistical differences at a low dose; for Efficacy compared with BAF: at low doses; for Closed arm number of entries / Closed arm residence time / Open arm number of entries / Open arm residence time / Open arm/closed arm frequency ratio / Open arm/closed arm time ratio: mice, intraperitoneal, 5 min before entering the maze. It is filed as in vivo, mouse. The text has this:
The active ingredient used in the following pharmacological experiment, the compound shown in Formula (I) of the present application, is the final product in Example 1 of the present application, namely (1R,6S,9R)6,10,10-trimethyl-2-(4,4,4-trifluorobutyl)-11-oxatricyclo [7.2.1.0^1,6]dodec-2-ene (hereinafter referred to as Compound 2). Compound 2 and an excipient PVP (povidone K30) were mixed in an ethanol solution in a mass ratio of 1:15, spin-dried, and prepared into a preparation form of Compound 2 (the following Compound 2 refers to the preparation form of Compound 2). The preparation form of which the active ingredient was 4-butyl-α-agarofuran (BAF for short) was used as a positive drug, a preparation method for this preparation was the same as that of the preparation of Compound 2, and the following BAF refers to this preparation of BAF. PVP was a blank control. In addition, the administration dose was calculated according to a crude drug.
This model is one of the most commonly used animal models in the research of antianxiety drugs. The elevated plus maze is composed of an open arm (30×5×0.5 cm) and an closed arm (30×8×15 cm) that are crossed in a positive cross shape, and the instrument is suspended 50 cm above the ground. Due to the narrowness, suspension, and brightness of the open arm, there may be internal “fear” or conflict in the open arm, and on the contrary, it more complies with the nature of rodents in the closed arm. 5 min after administration, a mouse is placed in the center of the maze, and its head faces to the open arm. Open-arm and closed-arm entries and residence times in both arms during the experimental period (usually 5 min) are recorded respectively. The percentages of the open arm entries and the open arm residence times respectively accounting for the total entries (sum of the open arm and closed arm entries) and the total time (sum of the open arm and closed arm residence times) are calculated, as an indicator for evaluating the anxiety. Generally speaking, a drug is considered to have antianxiety effects in the case that the open arm cumulative residence time is prolonged without reducing the open arm and closed arm entries.
The experiment used male Institute of Cancer Research (ICR) mice (purchased from Beijing Weitong Lihua Experimental Animal Technology Co., Ltd.), the weight was 18-20 g, the mice were randomly divided into 7 groups according to the weight, and there were 13 mice in each group. Grip adaptation training was conducted on the mice before the experiment. Before the experiment, the mice were fasted for 12 hours. It was administered by an intraperitoneal injection mode. 4-butyl-α-agarofuran (BAF for short) was used as a positive drug, and PVP was a blank control. The specific grouping and disposal modes are as follows:
During detection, after intraperitoneal injection of BAF/Compound 2, each mouse was immediately placed in an open animal box and allowed to move freely for 5 min, then the mouse was placed on a central platform of the elevated plus maze, its head faced to a fixed open arm. The detection was started, timed for 5 min, and recorded with a supermaze software by using a camera head. After all the experiments were completed, the residence times (s) of the mice in the open arm and the closed arm, the open arm and closed arm entries, and the time ratios and frequency ratios of the open arm and closed arm entries were recorded with the supermaze software. 1 was added to the number of entry arms with a latency of 0.

Data set [1] can be described thus: Plasma pharmacokinetics after intraperitoneal injection in mouse (UPLC-MS/MS). It is filed as in vivo. Particulars: for AUC(0-t) / half-life / Cmax: male, ICR; for AUC(0-t) / half-life: plasma; for AUC(0-t): 10 mg/kg, according to the above method, read-out: AUC(0-t); for AUC(0-t) / half-life / Pharmacokinetic properties compared with BAF: mouse; for AUC(0-t) / Pharmacokinetic properties compared with BAF: IP; for half-life / Cmax: IP 10 mg/kg; for Cmax: mouse plasma, prototype drug. The method, then:
Positive control drug 4-butyl-α-agarofuran preparation (BAF) and Compound 2 preparation were administered intraperitoneally at a dose of 10 mg/kg/10 ml (calculated according to the crude drug), and a suspension was prepared by ultrasonic grinding with double distilled water. Male ICR mice, with a weight of 21-24 g, were purchased from SPF (Beijing) Biotechnology Co., Ltd.
12 mice were randomly divided into 4 groups, there were 3 parallel cross blood sampling points in each group (5 points in groups 1 and 3, and 6 points in groups 2 and 4), it was administered according to the weight, and blood was collected from the orbital venous plexus at 5 min, 10 min, […], 30 min, 1 h, 2 h, 4 h, 6 h, 8 h, 12 h, and 24 h after administration. The bloods at each time point were collected into Eppendorf (EP) tubes anticoagulated with heparin, and placed on ice and centrifuged at 8000 r/min×5 min, to separate plasma for later use.
20 μl of mouse blank plasma was taken, 55 μl of acetonitrile containing an internal standard solution (200 ng/mL, BAF crude drug and Compound 2 crude drug are mutual internal standards, namely BAF was used as the internal standard of Compound 2, and Compound 2 was used as the internal standard of BAF, similarly hereinafter) is added, 5 μl of a methanol working solution of the compound BAF or Compound 2 with different concentrations was respectively added and mixed uniformly, so that its final plasma concentrations were 0.2, 0.5, 2, 5, 10, 25, 50, 100, 200, 500, 750, and 1000 ng/ml respectively, centrifugation was conducted twice at a high speed of 13000 r/min×5 min, and 5 μl of a supernatant was taken for UPLC-MS/MS analysis.
10 μL of plasma was taken, 30 μL of acetonitrile containing internal standard solution (100 ng/mL) was added to precipitate proteins, after the material was centrifuged twice at a high speed of 13000 r/min×5 min, 5 μl of a supernatant was taken for UPLC-MS/MS analysis.
Chromatographic column: Symmetry C8 (2.1 mm×50 mm, 3.5 μm), column temperature: 25° C., mobile phase: acetonitrile (0.1% formic acid): water (0.1% formic acid)=70:30 gradient elution, flow rate: 0.2 mL/min, Parallel Reaction Monitoring (PRM) detection, BAF: m/z 263.2→245.2; and Compound 2: m/z 317.2→299.2.

As to `CC1(C)O[C@]23C[C@H]1CC[C@]2(C)CCC=C3CCCCC(F)(F)F` [Compound 6, (1R,6S,9R)6,10,10-trimethyl-2-(5,5,5-trifluoropentyl)-11-oxatricyclo [7.2.1.0^1,6]dodec-2-ene], in the data set on male ICR mice, the “Open-arm residence times and entries compared with BAF” value is listed as “prolonged”; the “Efficacy compared with BAF” value is “better efficacy”. In addition, in the data set on male ICR mice (2.4 mg/kg), the “Closed arm number of entries” value was determined as 11.00 ± 0.83, the “Closed arm residence time” value was found to be 129.22 ± 9.33 s, the “Open arm number of entries” value came out at 9.11 ± 0.54 and the “Open arm residence time” value turned out to be 126.19 ± 8.01 s. Also, in the data set with male ICR mice (2.4 mg/kg), the “Open arm/closed arm frequency ratio” value is on record as 0.86 ± 0.07 and the “Open arm/closed arm time ratio” value was determined as 0.98 ± 0.15. In the data set on male ICR mice (4.8 mg/kg), the “Closed arm number of entries” value stood at 10.00 ± 0.60, the “Closed arm residence time” value was determined as 154.33 ± 7.85 s, the “Open arm number of entries” value was 8.88 ± 0.55 and the “Open arm residence time” value was 116.53 ± 6.42 s. For the same molecule, in the data set with male ICR mice (4.8 mg/kg), the “Open arm/closed arm frequency ratio” value amounted to 0.90 ± 0.05 and the “Open arm/closed arm time ratio” value amounted to 0.78 ± 0.07. Further, in the data set on male ICR mice (9.6 mg/kg), the “Closed arm number of entries” value turned out to be 8.56 ± 1.19, the “Closed arm residence time” value was determined as 140.04 ± 15.48 s, the “Open arm number of entries” value amounted to 8.78 ± 1.53 and the “Open arm residence time” value amounted to 111.29 ± 11.05 s. For the same molecule, in the data set on male ICR mice (9.6 mg/kg), the “Open arm/closed arm frequency ratio” value is listed as 1.06 ± 0.13 and the “Open arm/closed arm time ratio” value was determined as 0.91 ± 0.17. For the same molecule, in data set [1], the AUC(0-t) was 142 ng·h/mL, the half-life is 1.39 h, the highest level (Cmax) was 342 ng/mL and the “Pharmacokinetic properties compared with BAF” value is listed as “superior to BAF; also recorded: better pharmacokinetic properties”.

For `[2H]C1[C@H]2CC[C@]3(C)CC([2H])([2H])C=C(CCCC(F)(F)F)[C@@]13OC2(C)C` (stereo partly drawn) [Compound 8, (1R,6R,9R)6,10,10-trimethyl-2-(4,4,4-trifluorobutyl)-4,4,10-trideuterium-11-oxatricyclo [7.2.1.0^1,6]dodec-2-ene], in the data set on male ICR mice, the “Open-arm residence times and entries compared with BAF” value is “prolonged”; the “Efficacy compared with BAF” value is “better efficacy”. For the same molecule, in the data set on male ICR mice (2.4 mg/kg), the “Closed arm number of entries” value was determined as 10.86 ± 1.30, the “Closed arm residence time” value turned out to be 126.36 ± 11.90 s, the “Open arm number of entries” value turned out to be 9.43 ± 0.78 and the “Open arm residence time” value is 134.90 ± 9.73 s. In the data set on male ICR mice (2.4 mg/kg), the “Open arm/closed arm frequency ratio” value is recorded as 0.93 ± 0.10 and the “Open arm/closed arm time ratio” value is on record as 1.20 ± 0.26. Besides, in the data set with male ICR mice (4.8 mg/kg), the “Closed arm number of entries” value is listed as 10.00 ± 0.63, the “Closed arm residence time” value came out at 147.85 ± 10.01 s, the “Open arm number of entries” value is recorded as 9.10 ± 0.87 and the “Open arm residence time” value was found to be 117.97 ± 8.25 s. Moreover, in the data set on male ICR mice (4.8 mg/kg), the “Open arm/closed arm frequency ratio” value worked out at 0.93 ± 0.10 and the “Open arm/closed arm time ratio” value was 0.88 ± 0.14. In addition, in the data set on male ICR mice (9.6 mg/kg), the “Closed arm number of entries” value is 10.00 ± 1.20, the “Closed arm residence time” value was 139.21 ± 14.30 s, the “Open arm number of entries” value is on record as 8.70 ± 0.94 and the “Open arm residence time” value was 112.96 ± 9.69 s. For the same molecule, in the data set on male ICR mice (9.6 mg/kg), the “Open arm/closed arm frequency ratio” value is reported as 0.90 ± 0.07 and the “Open arm/closed arm time ratio” value came out at 0.93 ± 0.16. In data set [1], the AUC(0-t) worked out at 148 ng·h/mL, the half-life is 1.41 h, the highest concentration (Cmax) came out at 350 ng/mL and the “Pharmacokinetic properties compared with BAF” value is “superior to BAF; also recorded: better pharmacokinetic properties”.

A word on the AUC(0-t): it is exposure summed from dosing to a finite time, without extrapolation to infinity. For orientation: half-life means the time in which the quantity being followed falls by half. As usually defined, the Cmax is the peak of the concentration-time curve.
